Experiments:
murine B cells = assay: Murine B cell activation: CD86 expression on CD19 positive B cells after anti-IgM stimulation; format: cell-based; settings: Balb/c mouse splenocytes, anti-IgM 30 μg/ml, 24 hours, read-out: mCD86/ IC50 CD86
Experimental: PI3Kδ has been recognized to modulate B cell function when cells are stimulated through the B cell receptor (BCR) (Okkenhaug et al. Science 297:1031 (2002). For assessing the inhibitory property of compounds on B cell activation, the upregulation of activation markers CD86 and CD69 on murine B cells derived from mouse spleen […] is measured after stimulation with anti-IgM. CD69 is a well known activation marker for B and T cells (Sancho et al. Trends Immunol. 26:136 (2005). CD86 (also known as B7-2) is primarily expressed on antigen-presenting cells, including B cells. Resting B cells express CD86 at low levels, but upregulate it following stimulation of e.g. the BCR or IL-4 receptor. CD86 on a B cell interacts with CD28 on T cells. This interaction is required for optimal T cell activation and for the generation of an optimal IgG1 response (Carreno et al. Annu Rev Immunol. 20:29 (2002)).
Spleens from Balb/c mice were collected, splenocytes were isolated and washed twice with RPMI containing 10% foetal bovine serum (FBS), 10 mM HEPES, 100 Units/ml penicilline/streptomycine. RPMI supplemented in this way is subsequently referred to as medium. The cells were adjusted to 2.5×10^6 cells/ml in medium and 200 μl cell suspension ([…]) were added to the appropriate wells of 96 well plates.
Then the cells were stimulated by adding 50 μl anti-IgM mAb in medium (final concentration: 30 μg/ml). After incubation for 24 hours at 37° C., the cells were stained with the following antibody cocktails: anti-mouse CD86-FITC, anti-mouse CD69-PerCP-Cy5.5, anti-mouse CD19-PerCP for the assessment of B cells, and anti-mouse CD3-FITC, anti-mouse CD69-PE for the assessment of T cells (2 μl of each antibody/well). After one hour at room temperature (RT) in the dark the cells were transferred to 96 Deepwell plates. The cells were washed once with 1 ml PBS containing 2% FBS and after re-suspension in 200 μl the samples were analyzed on a FACS Calibur flow cytometer. Lymphocytes were gated in the FSC/SSC dot plot according to size and granularity and further analyzed for expression of CD19, CD3 and activation markers (CD86, CD69). Data were calculated from dot blots as percentage of cells positively stained for activation markers within the CD19+ or CD3+ population using BD CellQest Software.
For assessing the inhibitory property of compounds, compounds were first dissolved and diluted in DMSO followed by a 1:50 dilution in medium. Splenocytes from Balb/c mice were isolated, re-suspended and transfered to 96 well plates as described above (200 μl/well). The diluted compounds or solvent were added to the plates (25 μl) and incubated at 37° C. for 1 hour. Then the cultures were stimulated with 25 μl anti-IgM mAb/well (final concentration 30 μg/ml) for 24 hours at 37° C. and stained with anti-mouse CD86-FITC and anti-mouse CD19-PerCP (2 μl of each antibody/well). CD86 expression on CD19 positive B cells was quantified by flow cytometry as described above.

PI3K delta = target: T1, PI3K delta (Homo sapiens, UniProt O00329); assay: Enzymatic PI3K delta isoform inhibition (lipid kinase activity, Kinase-Glo); format: biochemical; settings: enzymatic assay
T1 construct: for the full-length p110-d subunit are generated and fused by overlapping PCR; His tag (C); made in house; host or cells: baculovirus BV1060; Tn5 (Trichoplusia ni) or TiniPro insect cells
Summary of the method: (§1)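 Reactions were started with ATP (2 μM solution) after the enzyme (10 nM solution) and phosphatidylinositol substrate (5 μg/ml solution) were added to the DMSO-dissolved compounds.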

PI3K alpha = target: T2, PI3K alpha (Homo sapiens, UniProt P42336); assay: Enzymatic PI3K alpha isoform inhibition (lipid kinase activity, Kinase-Glo); format: biochemical; settings: enzymatic assay
T2 construct: for the p110-a subunit (with a deletion of the first 20 amino acids) are generated; His tag (C); made in house; host or cells: baculovirus BV1075; Tn5 (Trichoplusia ni) or TiniPro insect cells
Summary of the method: as §1

T1 sequence (O00329 with tags, fused parts or gaps limits assumed, species assumed): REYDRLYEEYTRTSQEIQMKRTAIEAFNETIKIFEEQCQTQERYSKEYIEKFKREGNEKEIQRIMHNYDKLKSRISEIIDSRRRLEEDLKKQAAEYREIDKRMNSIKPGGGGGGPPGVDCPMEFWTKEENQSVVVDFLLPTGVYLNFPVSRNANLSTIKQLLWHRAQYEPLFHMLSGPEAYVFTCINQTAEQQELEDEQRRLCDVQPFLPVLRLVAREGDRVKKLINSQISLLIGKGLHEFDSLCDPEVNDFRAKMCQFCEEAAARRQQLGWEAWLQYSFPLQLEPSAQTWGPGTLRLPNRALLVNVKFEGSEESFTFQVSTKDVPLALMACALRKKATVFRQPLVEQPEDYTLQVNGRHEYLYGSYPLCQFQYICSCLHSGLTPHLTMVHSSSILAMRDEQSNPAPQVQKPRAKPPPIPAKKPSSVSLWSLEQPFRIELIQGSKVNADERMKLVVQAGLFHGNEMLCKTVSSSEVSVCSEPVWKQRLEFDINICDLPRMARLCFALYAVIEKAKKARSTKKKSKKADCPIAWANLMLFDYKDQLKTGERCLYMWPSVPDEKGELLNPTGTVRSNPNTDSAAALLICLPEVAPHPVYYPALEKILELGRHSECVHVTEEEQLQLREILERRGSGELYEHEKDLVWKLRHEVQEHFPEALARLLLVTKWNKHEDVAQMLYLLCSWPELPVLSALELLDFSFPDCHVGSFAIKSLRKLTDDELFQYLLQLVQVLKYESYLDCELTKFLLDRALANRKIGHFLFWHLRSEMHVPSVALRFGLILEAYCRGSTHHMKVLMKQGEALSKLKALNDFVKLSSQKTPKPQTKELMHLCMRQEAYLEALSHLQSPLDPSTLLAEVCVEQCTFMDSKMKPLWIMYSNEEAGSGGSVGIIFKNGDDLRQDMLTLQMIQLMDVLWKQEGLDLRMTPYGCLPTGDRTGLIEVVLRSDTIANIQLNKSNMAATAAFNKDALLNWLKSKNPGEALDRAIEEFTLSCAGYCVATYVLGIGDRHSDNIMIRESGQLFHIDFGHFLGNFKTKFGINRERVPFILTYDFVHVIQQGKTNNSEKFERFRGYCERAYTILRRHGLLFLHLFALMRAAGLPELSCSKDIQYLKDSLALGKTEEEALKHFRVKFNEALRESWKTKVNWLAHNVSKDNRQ
T2 sequence (P42336 with tags, fused parts or gaps limits assumed, species assumed): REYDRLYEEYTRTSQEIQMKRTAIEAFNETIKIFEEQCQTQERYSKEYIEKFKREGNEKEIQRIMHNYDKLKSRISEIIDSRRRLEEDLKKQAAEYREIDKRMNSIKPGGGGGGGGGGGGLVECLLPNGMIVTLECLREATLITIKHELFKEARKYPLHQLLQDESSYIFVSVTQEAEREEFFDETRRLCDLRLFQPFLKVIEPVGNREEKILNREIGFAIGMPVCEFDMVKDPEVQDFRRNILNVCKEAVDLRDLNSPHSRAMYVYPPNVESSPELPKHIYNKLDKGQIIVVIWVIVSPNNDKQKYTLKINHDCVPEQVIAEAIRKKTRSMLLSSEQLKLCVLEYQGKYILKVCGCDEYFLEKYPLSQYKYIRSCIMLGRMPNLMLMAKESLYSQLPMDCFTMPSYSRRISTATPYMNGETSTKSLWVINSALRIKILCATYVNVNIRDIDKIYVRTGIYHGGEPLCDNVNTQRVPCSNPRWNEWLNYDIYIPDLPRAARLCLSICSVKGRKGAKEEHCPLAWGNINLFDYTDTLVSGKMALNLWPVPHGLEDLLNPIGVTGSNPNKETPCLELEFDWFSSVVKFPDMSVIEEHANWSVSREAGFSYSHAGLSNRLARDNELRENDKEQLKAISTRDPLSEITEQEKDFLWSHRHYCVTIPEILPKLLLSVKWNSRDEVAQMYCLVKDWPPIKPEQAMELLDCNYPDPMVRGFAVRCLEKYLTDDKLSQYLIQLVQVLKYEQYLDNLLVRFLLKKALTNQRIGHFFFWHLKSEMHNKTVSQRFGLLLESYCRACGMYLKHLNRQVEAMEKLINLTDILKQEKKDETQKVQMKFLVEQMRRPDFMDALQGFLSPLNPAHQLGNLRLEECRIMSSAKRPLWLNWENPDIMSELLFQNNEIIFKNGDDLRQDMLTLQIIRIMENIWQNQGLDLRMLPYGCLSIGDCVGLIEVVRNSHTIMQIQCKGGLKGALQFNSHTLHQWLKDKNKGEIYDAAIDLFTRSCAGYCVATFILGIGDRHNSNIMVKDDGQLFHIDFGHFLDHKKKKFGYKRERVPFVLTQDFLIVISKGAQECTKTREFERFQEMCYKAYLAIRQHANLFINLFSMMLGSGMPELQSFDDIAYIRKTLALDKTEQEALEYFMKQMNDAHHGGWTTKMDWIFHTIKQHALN

IC50 (murine B cells)	IC50 (PI3K delta)	IC50 (PI3K alpha)	Compound
107 nM			COc1ccc(-c2ccc3ncnc(-c4cccc(C(=O)N5CCN(C(C)=O)CC5)c4)c3c2)cn1 [Example 12]
	3 nM	71 nM	COc1ncc(-c2ccc3ncnc(-c4ccnc(C(=O)N5CCN(C(C)=O)CC5)c4)c3c2)cc1C(F)(F)F [Example 114, 1-(4-{4-[6-(6-Methoxy-5-trifluoromethyl-pyridin-3-yl)-quinazolin-4-yl]-pyridine-2-carbonyl}-piperazin-1-yl)-ethanone]
	42.5 nM	888 nM	COc1ccc(-c2ccc3ncnc(-c4ccc(C)c(C(=O)N5CCN(C)CC5)c4)c3c2)cn1 [Example 115, {5-[6-(6-Methoxy-pyridin-3-yl)-quinazolin-4-yl]-2-methyl-phenyl}-(4-methyl-piperazin-1-yl)-methanone]
	14 nM	306 nM	COc1ccc(-c2ccc3ncnc(-c4ccc(C)c(C(=O)N5CCN(C(C)C)CC5)c4)c3c2)cn1 [Example 116, (4-Isopropyl-piperazin-1-yl)-{5-[6-(6-methoxy-pyridin-3-yl)-quinazolin-4-yl]-2-methyl-phenyl}-methanone]

From patent US20140249139A1, “Quinazoline Derivatives” (NOVARTIS AG, priority 2011, published 2014)
